Results reported in patent US6737383B1, “Herbicidal oxadiazolidines” (priority 1999, dated 2004).

Legend:
bedstraw = experiment: Test B pre/postemergence bedstraw; assay type: in vivo, Galium aparine; conditions: for Bedstraw plant response rating: Rate 500 g/ha
Summary of the method: (§1)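 Response is a visual 0-to-10 score relative to untreated plants, where 0 means no effect and 10 means complete control, taken twelve to sixteen days after application. Treatments went onto soil at planting and onto foliage of 1- to 4-leaf plants, using a surfactant-containing non-phytotoxic solvent.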

blackgrass = experiment: Test B pre/postemergence blackgrass; assay type: in vivo, Alopecurus myosuroides
Summary of the method: as §1

surinam grass = experiment: Test B pre/postemergence surinam grass; assay type: in vivo, Brachiaria decumbens
Summary of the method: as §1

cocklebur = experiment: Test B pre/postemergence cocklebur; assay type: in vivo, Xanthium strumarium
Summary of the method: as §1

corn = experiment: Test B pre/postemergence corn; assay type: in vivo, Zea mays
Summary of the method: as §1

crabgrass = experiment: Test B pre/postemergence crabgrass; assay type: in vivo, Digitaria sanguinalis
Summary of the method: as §1

giant foxtail = experiment: Test B pre/postemergence giant foxtail; assay type: in vivo, Setaria faberii
Summary of the method: as §1

morningglory = experiment: Test B pre/postemergence morningglory; assay type: in vivo, Ipomoea hederacea
Summary of the method: as §1

pigweed = experiment: Test B pre/postemergence pigweed; assay type: in vivo, Amaranthus retroflexus
Summary of the method: as §1

rape = experiment: Test B pre/postemergence rape; assay type: in vivo, Brassica napus
Summary of the method: as §1

soybean = experiment: Test B pre/postemergence soybean; assay type: in vivo, Glycine max
Summary of the method: as §1

sugar beet = experiment: Test B pre/postemergence sugar beet; assay type: in vivo, Beta vulgaris
Summary of the method: as §1

velvetleaf = experiment: Test B pre/postemergence velvetleaf; assay type: in vivo, Abutilon theophrasti
Summary of the method: as §1

wheat = experiment: Test B pre/postemergence wheat; assay type: in vivo, Triticum aestivum
Summary of the method: as §1

wild oat = experiment: Test B pre/postemergence wild oat; assay type: in vivo, Avena fatua
Summary of the method: as §1

purple nutsedge = experiment: Test B pre/postemergence purple nutsedge; assay type: in vivo, Cyperus rotundus
Summary of the method: as §1

[1] = Preemergence, Rate 62 g/ha, scale 0 to 10, 0 is no effect, 10 is complete control
[2] = Preemergence, Rate 125 g/ha, scale 0 to 10 (0 no effect, 10 complete control)
[3] = Preemergence, Rate 250 g/ha, scale of 0 to 10 where 0 is no effect and 10 is complete control
[4] = Postemergence, Rate 62 g/ha, scale 0 to 10, 0 is no effect, 10 is complete control
[5] = Postemergence, Rate 250 g/ha, scale 0 to 10, 0 no effect, 10 complete control
[6] = Preemergence, Rate 500 g/ha, scale 0 (no effect) to 10 (complete control)
[7] = Rate 125 g/ha, Postemergence, scale 0 to 10, 0 no effect, 10 complete control
[8] = Rate 500 g/ha, Postemergence, 0 to 10 scale (0 no effect, 10 complete control)

Cc1ccccc1-n1c(=O)on(C(=O)N(c2ccc(C(F)(F)F)cc2)C(C)C)c1=O [Compound 39]
Plant response rating, Bedstraw (bedstraw; [1]): 0 | Plant response rating, Bedstraw (bedstraw; [2]): 0 | Plant response rating, Bedstraw (bedstraw; [3]): 0 | Bedstraw plant response rating (bedstraw; Preemergence, scale 0 (no effect) to 10 (complete control)): 0 | Bedstraw plant response rating (bedstraw; Postemergence, 0 to 10 scale (0 no effect, 10 complete control)): 0 | Blackgrass plant response rating (blackgrass; [4]): 0 | Blackgrass plant response rating (blackgrass; [5]): 0 | Plant response rating, Blackgrass (blackgrass; [1]): 0 | Plant response rating, Blackgrass (blackgrass; [2]): 0 | Plant response rating, Blackgrass (blackgrass; [3]): 0 | Blackgrass plant response rating (blackgrass; [6]): 0 | Blackgrass plant response rating (blackgrass; [7]): 0 | Blackgrass plant response rating (blackgrass; [8]): 0 | B. signalgrass plant response rating (surinam grass; [4]): 0 | B. signalgrass plant response rating (surinam grass; [5]): 0 | Plant response rating, B. signalgrass (surinam grass; [1]): 0 | Plant response rating, B. signalgrass (surinam grass; [2]): 0 | Plant response rating, B. signalgrass (surinam grass; [3]): 0 | B. signalgrass plant response rating (surinam grass; [6]): 0 | B. signalgrass plant response rating (surinam grass; [7]): 0 | B. signalgrass plant response rating (surinam grass; [8]): 0 | Cocklebur plant response rating (cocklebur; [4]): 0 | Cocklebur plant response rating (cocklebur; [5]): 0 | Plant response rating, Cocklebur (cocklebur; [1]): 0 | Plant response rating, Cocklebur (cocklebur; [2]): 0 | Plant response rating, Cocklebur (cocklebur; [3]): 0 | Cocklebur plant response rating (cocklebur; [6]): 0 | Cocklebur plant response rating (cocklebur; [7]): 0 | Cocklebur plant response rating (cocklebur; [8]): 0 | Corn plant response rating (corn; [4]): 0 | Corn plant response rating (corn; [5]): 0 | Plant response rating, Corn (corn; [1]): 0 | Plant response rating, Corn (corn; [2]): 0 | Plant response rating, Corn (corn; [3]): 0 | Corn plant response rating (corn; [6]): 0 | Corn plant response rating (corn; [7]): 0 | Corn plant response rating (corn; [8]): 0 | Crabgrass plant response rating (crabgrass; [4]): 0 | Crabgrass plant response rating (crabgrass; [5]): 3 | Plant response rating, Crabgrass (crabgrass; [1]): 0 | Plant response rating, Crabgrass (crabgrass; [2]): 3 | Plant response rating, Crabgrass (crabgrass; [3]): 5 | Crabgrass plant response rating (crabgrass; [6]): 6 | Crabgrass plant response rating (crabgrass; [7]): 0 | Crabgrass plant response rating (crabgrass; [8]): 4 | Giant foxtail plant response rating (giant foxtail; [4]): 0 | Giant foxtail plant response rating (giant foxtail; [5]): 0 | Plant response rating, Giant foxtail (giant foxtail; [1]): 0 | Plant response rating, Giant foxtail (giant foxtail; [2]): 0 | Giant foxtail plant response rating (giant foxtail; [6]): 10 | Giant foxtail plant response rating (giant foxtail; [7]): 0 | Giant foxtail plant response rating (giant foxtail; [8]): 0 | Morningglory plant response rating (morningglory; [4]): 0 | Morningglory plant response rating (morningglory; [5]): 0 | Plant response rating, Morningglory (morningglory; [1]): 0 | Plant response rating, Morningglory (morningglory; [2]): 0 | Plant response rating, Morningglory (morningglory; [3]): 0 | Morningglory plant response rating (morningglory; [6]): 0 | Morningglory plant response rating (morningglory; [7]): 0 | Morningglory plant response rating (morningglory; [8]): 0 | Redroot pigweed plant response rating (pigweed; [4]): 0 | Redroot pigweed plant response rating (pigweed; [5]): 0 | Plant response rating, Redroot pigweed (pigweed; [1]): 0 | Plant response rating, Redroot pigweed (pigweed; [2]): 5 | Plant response rating, Redroot pigweed (pigweed; [3]): 6 | Redroot pigweed plant response rating (pigweed; [6]): 6 | Redroot pigweed plant response rating (pigweed; [7]): 0 | Redroot pigweed plant response rating (pigweed; [8]): 0 | Rape plant response rating (rape; [4]): 0 | Rape plant response rating (rape; [5]): 0 | Plant response rating, Rape (rape; [1]): 2 | Plant response rating, Rape (rape; [2]): 0 | Plant response rating, Rape (rape; [3]): 0 | Rape plant response rating (rape; [6]): 0 | Rape plant response rating (rape; [7]): 0 | Rape plant response rating (rape; [8]): 0 | Soybean plant response rating (soybean; [4]): 3 | Soybean plant response rating (soybean; [5]): 4 | Plant response rating, Soybean (soybean; [1]): 0 | Plant response rating, Soybean (soybean; [2]): 0 | Plant response rating, Soybean (soybean; [3]): 0 | Soybean plant response rating (soybean; [6]): 0 | Soybean plant response rating (soybean; [7]): 4 | Sugarbeets plant response rating (sugar beet; [4]): 0 | Sugarbeets plant response rating (sugar beet; [5]): 0 | Plant response rating, Sugarbeets (sugar beet; [1]): 2 | Plant response rating, Sugarbeets (sugar beet; [2]): 0 | Plant response rating, Sugarbeets (sugar beet; [3]): 0 | Sugarbeets plant response rating (sugar beet; [6]): 0 | Sugarbeets plant response rating (sugar beet; [7]): 0 | Velvetleaf plant response rating (velvetleaf; [5]): 0 | Plant response rating, Velvetleaf (velvetleaf; [1]): 0 | Plant response rating, Velvetleaf (velvetleaf; [2]): 0 | Plant response rating, Velvetleaf (velvetleaf; [3]): 0 | Velvetleaf plant response rating (velvetleaf; [6]): 0 | Velvetleaf plant response rating (velvetleaf; [7]): 0 | Wheat plant response rating (wheat; [4]): 0 | Wheat plant response rating (wheat; [5]): 0 | Plant response rating, Wheat (wheat; [1]): 0 | Plant response rating, Wheat (wheat; [2]): 0 | Plant response rating, Wheat (wheat; [3]): 0 | Wheat plant response rating (wheat; [6]): 0 | Wheat plant response rating (wheat; [7]): 0 | Wild oats plant response rating (wild oat; [4]): 0 | Wild oats plant response rating (wild oat; [5]): 0 | Plant response rating, Wild oats (wild oat; [2]): 0 | Plant response rating, Wild oats (wild oat; [3]): 0 | Wild oats plant response rating (wild oat; [6]): 0 | Wild oats plant response rating (wild oat; [7]): 0 | Nutsedge plant response rating (purple nutsedge; [4]): 0 | Nutsedge plant response rating (purple nutsedge; [5]): 0 | Plant response rating, Nutsedge (purple nutsedge; [1]): 0 | Plant response rating, Nutsedge (purple nutsedge; [2]): 0 | Plant response rating, Nutsedge (purple nutsedge; [3]): 0 | Nutsedge plant response rating (purple nutsedge; [6]): 0 | Nutsedge plant response rating (purple nutsedge; [7]): 0 | Nutsedge plant response rating (purple nutsedge; [8]): 0
